The target of one test is T1, human FXR (NR1H4) (Homo sapiens, UniProt Q96RI1).
T1 sequence (Q96RI1 1-476 isoform Q96RI1-1): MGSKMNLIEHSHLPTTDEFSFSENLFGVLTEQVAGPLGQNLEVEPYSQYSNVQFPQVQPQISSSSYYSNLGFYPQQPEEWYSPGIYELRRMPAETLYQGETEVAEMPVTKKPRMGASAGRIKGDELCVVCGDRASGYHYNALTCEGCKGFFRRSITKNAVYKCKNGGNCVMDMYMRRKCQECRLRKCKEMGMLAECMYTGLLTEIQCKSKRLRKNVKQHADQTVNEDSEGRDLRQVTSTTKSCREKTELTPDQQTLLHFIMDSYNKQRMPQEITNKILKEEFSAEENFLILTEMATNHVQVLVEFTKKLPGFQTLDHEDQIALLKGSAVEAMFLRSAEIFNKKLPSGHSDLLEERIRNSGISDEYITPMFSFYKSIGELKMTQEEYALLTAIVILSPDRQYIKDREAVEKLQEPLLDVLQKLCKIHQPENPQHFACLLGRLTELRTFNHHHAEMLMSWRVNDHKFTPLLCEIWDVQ
Kind of test: Human FXR (NR1H4) agonist assessment, FXRE-NanoLuc reporter in HEK293T cells. Type of test: cell-based. The following applies: FXR activation, HEK293T FXRE-NanoLuc reporter, 24 hr; for EC50: read-out: EC50. The method in brief:
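HEK293T cells stably expressing human FXR with an FXRE-NanoLuc reporter were treated with compounds for 24 hr at 37 °C, with 0.01% DMSO as negative control. Medium was read for luminescence after 5 min with coelenterazine. EC50 was fitted by sigmoid to concentration-response data.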

The target in the next test is MRGPRX4 (Homo sapiens, UniProt Q96LA9). Kind of test: MRGPRX4 activation, Fluo-8 Ca2+ FLIPR assay in HEK293T cells stably expressing MRGPRX4. On the set-up: key to MRGPRX4 activation, Average / MRGPRX4 activation, Ave.: fluorescence change dF/F0. In kind it is cell-based. The following applies: for EC50: MRGPRX4 activation, Ca2+ fluorescence, no activation in tested range reported as III, read-out: Activity (EC50 μM). The method in brief:
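Cells seeded overnight to >95% confluence, loaded 40-60 min at room temperature with 2 μM Fluo-8 AM, then kept in HHBS. Baseline read 30 s, compound added, signal followed 150 s more.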

Sequence of MRGPRX4 (Q96LA9 whole entry): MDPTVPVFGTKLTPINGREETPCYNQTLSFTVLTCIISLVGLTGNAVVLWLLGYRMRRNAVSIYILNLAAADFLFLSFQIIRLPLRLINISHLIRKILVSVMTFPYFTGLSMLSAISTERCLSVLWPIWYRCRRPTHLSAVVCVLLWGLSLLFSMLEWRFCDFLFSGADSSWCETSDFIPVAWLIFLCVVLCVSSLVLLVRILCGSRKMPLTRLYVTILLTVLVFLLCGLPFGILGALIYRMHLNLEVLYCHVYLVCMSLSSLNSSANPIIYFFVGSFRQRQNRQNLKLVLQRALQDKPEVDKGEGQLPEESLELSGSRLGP

`CC[C@H]1[C@@H](O)[C@@H]2[C@H](CC[C@]3(C)[C@@H]([C@H](C)CNC(=O)NS(=O)(=O)c4ccc(C(C)(C)CF)cc4)CC[C@@H]23)[C@@]2(C)CCCC[C@@H]12` [20-1]: the “Efficacy (maximum measured induction of NanoLuc, normalized to CDCA set as 100%)” value on human FXR (NR1H4) is listed as “A (efficacy >400%)”. The EC50 was less than 1 µM at human FXR (NR1H4) and more than 100 µM at MRGPRX4. The “MRGPRX4 activation, Average” value is 0.018 at MRGPRX4 (E3-9, Conc. (Log[M]) −4.0); 0.016 on MRGPRX4 (E3-9, Conc. (Log[M]) −4.5); 0.019 at MRGPRX4 (E3-9, Conc. (Log[M]) −5.0); 0.019 on MRGPRX4 (E3-9, Conc. (Log[M]) −5.4); 0.021 on MRGPRX4 (E3-9, Conc. (Log[M]) −5.9).
As for `CC[C@H]1[C@@H](O)[C@@H]2[C@H](CC[C@]3(C)[C@@H]([C@H](C)CNC(=O)NS(=O)(=O)c4ccc5c(c4)CCC(C)(C)O5)CC[C@@H]23)[C@@]2(C)CCCC[C@@H]12` [20-2], at human FXR (NR1H4), the “Efficacy (maximum measured induction of NanoLuc, normalized to CDCA set as 100%)” value is reported as “B (300%<efficacy <=400%)”. Further, the EC50 at human FXR (NR1H4) was 1 to 10 µM; at MRGPRX4, more than 100 µM. For the same molecule, the “MRGPRX4 activation, Average” value is on record as 0.025 on MRGPRX4 (E3-9, Conc. (Log[M]) −4.0); 0.012 at MRGPRX4 (E3-9, Conc. (Log[M]) −4.5); 0.021 at MRGPRX4 (E3-9, Conc. (Log[M]) −5.0); 0.019 on MRGPRX4 (E3-9, Conc. (Log[M]) −5.4); 0.025 on MRGPRX4 (E3-9, Conc. (Log[M]) −5.9).
Regarding `CC[C@H]1[C@@H](O)[C@@H]2[C@H](CC[C@]3(C)[C@@H]([C@H](C)CNC(=O)NS(=O)(=O)c4ccc(N5CCCCC5)nc4)CC[C@@H]23)[C@@]2(C)CCCC[C@@H]12` [20-3], the “Efficacy (maximum measured induction of NanoLuc, normalized to CDCA set as 100%)” value on human FXR (NR1H4) is on record as “B (300%<efficacy <=400%)”. Further, the EC50 at human FXR (NR1H4) was 1 to 10 µM; at MRGPRX4, more than 100 µM. The “Activation (%)” value was found to be 3.48% at MRGPRX4 (second E3-8-1, 4.6 nM, n = 1); 2.86% on MRGPRX4 (second E3-8-1, 4.6 nM, n = 2); 3.48% at MRGPRX4 (second E3-8-1, 14 nM, n = 1); 3.79% at MRGPRX4 (second E3-8-1, 14 nM, n = 2); 3.48% at MRGPRX4 (second E3-8-1, 41 nM, n = 1); 3.48% on MRGPRX4 (second E3-8-1, 41 nM, n = 2). Further, the “Activation (%)” value was 3.17% at MRGPRX4 (second E3-8-1, 123 nM, n = 1); 3.79% on MRGPRX4 (second E3-8-1, 123 nM, n = 2); 3.17% on MRGPRX4 (second E3-8-1, 370 nM, n = 1); 3.17% at MRGPRX4 (second E3-8-1, 370 nM, n = 2); 3.79% at MRGPRX4 (second E3-8-1, 1111 nM, n = 1); 3.48% at MRGPRX4 (second E3-8-1, 1111 nM, n = 2). Moreover, the “Activation (%)” value on MRGPRX4 (second E3-8-1, 3333 nM, n = 1) was determined as 2.55%; on MRGPRX4 (second E3-8-1, 3333 nM, n = 2), 3.17%; on MRGPRX4 (second E3-8-1, 10000 nM, n = 1), 2.55%; on MRGPRX4 (second E3-8-1, 10000 nM, n = 2) it was 3.17%; at MRGPRX4 (second E3-8-1, 30000 nM, n = 1), 1.63%; on MRGPRX4 (second E3-8-1, 30000 nM, n = 2), 2.24%.
As for `C[C@H](CC(=O)O)[C@H]1CC[C@H]2[C@@H]3CC[C@@H]4C[C@H](O)CC[C@]4(C)[C@H]3C[C@H](O)[C@]12C` [RC-1], the “Efficacy (maximum measured induction of NanoLuc, normalized to CDCA set as 100%)” value on human FXR (NR1H4) is “B (300%<efficacy <=400%)”. Further, the figures for the EC50 at human FXR (NR1H4) and at MRGPRX4 were 1 to 10 µM and less than 50 µM, respectively. Moreover, the “MRGPRX4 activation, fluorescence change (dF/F0), Average” value (from here on “MRGPRX4 activation, fluorescence change”) at MRGPRX4 (Conc. (Log[M]) −4) is reported as 0.329; on MRGPRX4 (Conc. (Log[M]) −4.5), 0.080; on MRGPRX4 (Conc. (Log[M]) −5) it was −0.029; at MRGPRX4 (Conc. (Log[M]) −5.5), −0.019; on MRGPRX4 (Conc. (Log[M]) −6), −0.015; at MRGPRX4 (Conc. (Log[M]) −7), −0.010. For the same molecule, the “MRGPRX4 activation, fluorescence change” value is −0.003 at MRGPRX4 (Conc. (Log[M]) −8) and −0.005 at MRGPRX4 (Conc. (Log[M]) −9).
In the case of `C[C@H](CCCC(=O)O)[C@H]1CC[C@H]2[C@@H]3CC[C@@H]4C[C@H](O)CC[C@]4(C)[C@H]3C[C@H](O)[C@]12C` [RC-2], the “Efficacy (maximum measured induction of NanoLuc, normalized to CDCA set as 100%)” value on human FXR (NR1H4) is “B (300%<efficacy <=400%)”. The EC50 at human FXR (NR1H4) was 1 to 10 µM; at MRGPRX4, less than 50 µM. Moreover, the “MRGPRX4 activation, fluorescence change” value is 0.242 on MRGPRX4 (Conc. (Log[M]) −4); 0.159 on MRGPRX4 (Conc. (Log[M]) −4.5); 0.126 on MRGPRX4 (Conc. (Log[M]) −5); 0.034 on MRGPRX4 (Conc. (Log[M]) −5.5); 0.017 on MRGPRX4 (Conc. (Log[M]) −6); −0.012 on MRGPRX4 (Conc. (Log[M]) −7). For the same molecule, the “MRGPRX4 activation, fluorescence change” value at MRGPRX4 (Conc. (Log[M]) −8) is reported as −0.010; on MRGPRX4 (Conc. (Log[M]) −9), −0.018.
As to `C[C@]12CC[C@@H](O)C[C@H]1CC[C@@H]1[C@@H]2C[C@H](O)[C@]2(C)[C@@H](CCCCCC(=O)O)CC[C@@H]12` [RC-3], the “Efficacy (maximum measured induction of NanoLuc, normalized to CDCA set as 100%)” value at human FXR (NR1H4) was “B (300%<efficacy <=400%)”. In addition, the figures for the EC50 on human FXR (NR1H4) and at MRGPRX4 were 1 to 10 µM and less than 50 µM, respectively. In addition, the “MRGPRX4 activation, fluorescence change” value is given as 0.225 on MRGPRX4 (Conc. (Log[M]) −4); 0.233 at MRGPRX4 (Conc. (Log[M]) −4.5); 0.182 on MRGPRX4 (Conc. (Log[M]) −5); 0.026 at MRGPRX4 (Conc. (Log[M]) −5.5); −0.007 on MRGPRX4 (Conc. (Log[M]) −6); −0.027 at MRGPRX4 (Conc. (Log[M]) −7). Moreover, the results for the “MRGPRX4 activation, fluorescence change” value at MRGPRX4 (Conc. (Log[M]) −8) and on MRGPRX4 (Conc. (Log[M]) −9) were −0.008 and −0.013, respectively.
Regarding `C[C@H](CCC(=O)O)[C@H]1CC[C@H]2[C@@H]3CC[C@@H]4C[C@@H](O)CC[C@]4(C)[C@H]3C[C@H](O)[C@]12C` [RC-5], the “Efficacy (maximum measured induction of NanoLuc, normalized to CDCA set as 100%)” value on human FXR (NR1H4) is “B (300%<efficacy <=400%)”. Further, at human FXR (NR1H4), the EC50 was in the range of 1 to 10 µM. The “MRGPRX4 activation, fluorescence change” value on MRGPRX4 (Conc. (Log[M]) −4) is 0.300; at MRGPRX4 (Conc. (Log[M]) −4.5), 0.228; at MRGPRX4 (Conc. (Log[M]) −5), 0.166; at MRGPRX4 (Conc. (Log[M]) −5.5) it was 0.030; at MRGPRX4 (Conc. (Log[M]) −6), −0.009; at MRGPRX4 (Conc. (Log[M]) −7), −0.017. Also, the “MRGPRX4 activation, fluorescence change” value was −0.021 at MRGPRX4 (Conc. (Log[M]) −8) and −0.007 on MRGPRX4 (Conc. (Log[M]) −9).
Regarding `C[C@H](CCC(=O)O)[C@H]1CC[C@H]2[C@@H]3CC[C@@H]4C[C@@H](O)CC[C@]4(C)[C@H]3C[C@@H](O)[C@]12C` [RC-6], on human FXR (NR1H4), the “Efficacy (maximum measured induction of NanoLuc, normalized to CDCA set as 100%)” value was “B (300%<efficacy <=400%)”. Moreover, on human FXR (NR1H4), the EC50 was 1 to 10 µM. Further, the “MRGPRX4 activation, fluorescence change” value was 0.259 on MRGPRX4 (Conc. (Log[M]) −4); 0.208 on MRGPRX4 (Conc. (Log[M]) −4.5); 0.145 on MRGPRX4 (Conc. (Log[M]) −5); 0.009 on MRGPRX4 (Conc. (Log[M]) −5.5); −0.013 at MRGPRX4 (Conc. (Log[M]) −6); −0.007 on MRGPRX4 (Conc. (Log[M]) −7). In addition, the entries for the “MRGPRX4 activation, fluorescence change” value at MRGPRX4 (Conc. (Log[M]) −8) and on MRGPRX4 (Conc. (Log[M]) −9) were −0.015 and −0.008, respectively.
With `C[C@H](CC/C=C/C(=O)O)[C@H]1CC[C@H]2[C@@H]3CC[C@@H]4C[C@H](O)CC[C@]4(C)[C@H]3C[C@H](O)[C@]12C` [RC-7], the “Efficacy (maximum measured induction of NanoLuc, normalized to CDCA set as 100%)” value on human FXR (NR1H4) is “C (100%<efficacy <=300%)”. Further, the results for the EC50 on human FXR (NR1H4) and at MRGPRX4 were 1 to 10 µM and less than 50 µM, respectively. In addition, the “MRGPRX4 activation, fluorescence change” value is 0.049 at MRGPRX4 (Conc. (Log[M]) −4); 0.030 on MRGPRX4 (Conc. (Log[M]) −4.5); −0.027 at MRGPRX4 (Conc. (Log[M]) −5); −0.038 at MRGPRX4 (Conc. (Log[M]) −5.5); −0.035 on MRGPRX4 (Conc. (Log[M]) −6); 0.007 at MRGPRX4 (Conc. (Log[M]) −7). Besides, the “MRGPRX4 activation, fluorescence change” value was −0.030 at MRGPRX4 (Conc. (Log[M]) −8) and −0.005 on MRGPRX4 (Conc. (Log[M]) −9).

The EC50 is the concentration needed to bring the measured effect to its halfway point.

These data come from patent US20260116910A1, “POLYCYCLIC COMPOUNDS AND METHODS THEREOF” (HEPAITECH (BEIJING) BIOPHARMA TECHNOLOGY CO., LTD., priority 2021, published 2026).
